Experimental data reported in the OligoGym collection.
HELM strings list units from the 5' end as sugar, base in round brackets, then linkage (d deoxyribose, r ribose, m 2'-O-methyl, p phosphodiester). Strings are as the collection lists them; they lack the last nucleoside at the 3' end of the tested compound. [moe] = 2'-O-(2-methoxyethyl) (MOE); [sp] = phosphorothioate linkage; [m5C] = 5-methylcytosine

biological target: GFAP; assay: mouse, dose not given; settings: ASO

3 h FOB score, 1 score 0-7:
RNA1{[moe]([m5C])[sp].[moe](T)p.[moe](T)p.[moe](T)p.d(T)[sp].d(G)[sp].d(A)[sp].d(G)[sp].d(A)[sp].d(T)[sp].d(A)[sp].d(T)[sp].d([m5C])[sp].d(T)[sp].[moe](T)p.[moe](G)p.[moe](T)p.[moe](G)[sp].[moe](A)}$$$$ (last 3' nucleoside missing)
RNA1{[moe](T)[sp].[moe](T)p.[moe](G)p.[moe](T)p.[moe]([m5C])[sp].d(T)[sp].d(T)[sp].d(T)[sp].d(A)[sp].d(T)[sp].d(T)[sp].d(T)[sp].d(T)[sp].d(T)[sp].d([m5C])[sp].[moe]([m5C])p.[moe](T)p.[moe]([m5C])[sp].[moe](A)}$$$$ (last 3' nucleoside missing)
RNA1{[moe](T)[sp].[moe]([m5C])p.[moe](A)p.[moe]([m5C])p.[moe](A)[sp].d([m5C])[sp].d(T)[sp].d([m5C])[sp].d([m5C])[sp].d(T)[sp].d([m5C])[sp].d(A)[sp].d(G)[sp].d([m5C])[sp].d(T)[sp].[moe](A)p.[moe](G)p.[moe](G)[sp].[moe](T)}$$$$ (last 3' nucleoside missing)
RNA1{[moe](G)[sp].[moe](G)p.[moe]([m5C])p.[moe](A)p.d([m5C])[sp].d(A)[sp].d(G)[sp].d(T)[sp].d(T)[sp].d([m5C])[sp].d([m5C])[sp].d([m5C])[sp].d(A)[sp].d(G)[sp].[moe](A)p.[moe](T)p.[moe](A)p.[moe]([m5C])[sp].[moe](T)}$$$$ (last 3' nucleoside missing)
RNA1{[moe](T)[sp].[moe]([m5C])p.[moe](T)p.[moe](T)p.[moe](T)[sp].d(A)[sp].d(T)[sp].d(T)[sp].d(T)[sp].d(T)[sp].d(T)[sp].d([m5C])[sp].d([m5C])[sp].d(T)[sp].d([m5C])[sp].[moe](A)p.[moe](G)p.[moe]([m5C])[sp].[moe](G)}$$$$ (last 3' nucleoside missing)

3 h FOB score, 3 score 0-7:
RNA1{[moe](G)[sp].[moe](G)p.[moe]([m5C])p.[moe](A)p.d(G)[sp].d(T)[sp].d(A)[sp].d(T)[sp].d(T)[sp].d(A)[sp].d([m5C])[sp].d([m5C])[sp].d(T)[sp].d([m5C])[sp].[moe](T)p.[moe](A)p.[moe]([m5C])p.[moe](T)[sp].[moe](A)}$$$$ (last 3' nucleoside missing)
RNA1{[moe](T)[sp].[moe](T)p.[moe](T)p.[moe](G)p.[moe](A)p.d(G)[sp].d(A)[sp].d(T)[sp].d(A)[sp].d(T)[sp].d([m5C])[sp].d(T)[sp].d(T)[sp].d(G)[sp].d(T)[sp].[moe](G)p.[moe](A)p.[moe]([m5C])[sp].[moe]([m5C])}$$$$ (last 3' nucleoside missing)
RNA1{[moe](G)[sp].[moe](G)p.[moe](G)p.[moe]([m5C])p.[moe](A)[sp].d(T)[sp].d(G)[sp].d(A)[sp].d(G)[sp].d([m5C])[sp].d([m5C])[sp].d(A)[sp].d(T)[sp].d([m5C])[sp].d([m5C])[sp].[moe](T)p.[moe]([m5C])p.[moe](T)[sp].[moe]([m5C])}$$$$ (last 3' nucleoside missing)
RNA1{[moe](T)[sp].[moe](G)p.[moe](T)p.[moe](G)p.[moe](A)[sp].d([m5C])[sp].d(T)[sp].d(A)[sp].d(T)[sp].d([m5C])[sp].d(T)[sp].d(A)[sp].d(G)[sp].[moe](G)p.[moe](A)p.[moe](T)[sp].[moe](T)}$$$$ (last 3' nucleoside missing)
RNA1{[moe](G)[sp].[moe](G)p.[moe](T)p.[moe](T)p.[moe](G)[sp].d(G)[sp].d(T)[sp].d(T)[sp].d(T)[sp].d([m5C])[sp].d(A)[sp].d(T)[sp].d([m5C])[sp].d([m5C])[sp].d(T)[sp].[moe](G)p.[moe](G)p.[moe](A)[sp].[moe](G)}$$$$ (last 3' nucleoside missing)
RNA1{[moe]([m5C])[sp].[moe]([m5C])p.[moe]([m5C])p.[moe]([m5C])p.[moe](T)[sp].d([m5C])[sp].d(T)[sp].d(T)[sp].d([m5C])[sp].d([m5C])[sp].d(T)[sp].d([m5C])[sp].d([m5C])[sp].d(A)[sp].d(G)[sp].[moe]([m5C])p.[moe]([m5C])p.[moe](G)[sp].[moe]([m5C])}$$$$ (last 3' nucleoside missing)

3 h FOB score, 0 score 0-7:
RNA1{[moe](G)[sp].[moe]([m5C])p.[moe](A)p.[moe](A)p.[moe]([m5C])[sp].d(A)[sp].d(G)[sp].d(T)[sp].d(T)[sp].d(T)[sp].d([m5C])[sp].d([m5C])[sp].d(A)[sp].d(T)[sp].d(A)[sp].[moe](A)p.[moe]([m5C])p.[moe](A)[sp].[moe](A)}$$$$ (last 3' nucleoside missing)
RNA1{[moe]([m5C])[sp].[moe](T)p.[moe](T)p.[moe](G)p.[moe](G)[sp].d(A)[sp].d([m5C])[sp].d(T)[sp].d([m5C])[sp].d([m5C])[sp].d(T)[sp].d(T)[sp].d(A)[sp].d(A)[sp].d(T)[sp].[moe](G)p.[moe](A)p.[moe]([m5C])[sp].[moe]([m5C])}$$$$ (last 3' nucleoside missing)
RNA1{[moe]([m5C])[sp].[moe](G)p.[moe](T)p.[moe]([m5C])p.[moe](A)p.[moe]([m5C])p.d(A)[sp].d(T)[sp].d(T)[sp].d([m5C])[sp].d(A)[sp].d([m5C])[sp].d(T)[sp].d(A)[sp].d(A)[sp].d(T)[sp].[moe](A)p.[moe](T)[sp].[moe](T)}$$$$ (last 3' nucleoside missing)

3 h FOB score, 5 score 0-7:
RNA1{[moe]([m5C])[sp].[moe](A)p.[moe](A)p.[moe](G)p.[moe]([m5C])[sp].d(T)[sp].d([m5C])[sp].d(T)[sp].d(G)[sp].d([m5C])[sp].d([m5C])[sp].d(A)[sp].d(G)[sp].d(T)[sp].d(T)[sp].[moe](T)p.[moe](A)p.[moe](A)[sp].[moe](T)}$$$$ (last 3' nucleoside missing)
RNA1{[moe](G)[sp].[moe](G)p.[moe]([m5C])p.[moe](T)p.[moe](T)[sp].d(T)[sp].d(T)[sp].d(G)[sp].d(A)[sp].d(G)[sp].d(A)[sp].d(T)[sp].d(A)[sp].d(T)[sp].d([m5C])[sp].[moe](T)p.[moe](T)p.[moe](G)[sp].[moe](T)}$$$$ (last 3' nucleoside missing)

3 h FOB score, 4 score 0-7:
RNA1{[moe](T)[sp].[moe](T)p.[moe](G)p.[moe](A)p.[moe](G)[sp].d(A)[sp].d(T)[sp].d(A)[sp].d(T)[sp].d([m5C])[sp].d(T)[sp].d(T)[sp].d(G)[sp].d(T)[sp].d(G)[sp].[moe](A)p.[moe]([m5C])p.[moe]([m5C])[sp].[moe](T)}$$$$ (last 3' nucleoside missing)
RNA1{[moe](T)[sp].[moe]([m5C])p.[moe](A)p.[moe](G)p.d([m5C])[sp].d([m5C])[sp].d(T)[sp].d(G)[sp].d(G)[sp].d(T)[sp].d(T)[sp].d(A)[sp].d(G)[sp].d([m5C])[sp].[moe]([m5C])p.[moe](T)p.[moe](T)p.[moe](T)[sp].[moe]([m5C])}$$$$ (last 3' nucleoside missing)
RNA1{[moe](T)[sp].[moe](G)p.[moe]([m5C])p.[moe](T)p.[moe](T)[sp].d(T)[sp].d(T)[sp].d(G)[sp].d([m5C])[sp].d([m5C])[sp].d([m5C])[sp].d([m5C])[sp].d([m5C])[sp].d(T)[sp].d([m5C])[sp].[moe](G)p.[moe](A)p.[moe](A)[sp].[moe](T)}$$$$ (last 3' nucleoside missing)
RNA1{[moe](T)[sp].[moe]([m5C])p.[moe](A)p.[moe](G)p.[moe]([m5C])p.d([m5C])[sp].d(T)[sp].d(G)[sp].d(G)[sp].d(T)[sp].d(T)[sp].d(A)[sp].d(G)[sp].d([m5C])[sp].d([m5C])[sp].[moe](T)p.[moe](T)p.[moe](T)[sp].[moe]([m5C])}$$$$ (last 3' nucleoside missing)

3 h FOB score, 7 score 0-7:
RNA1{[moe](G)[sp].[moe](G)p.[moe]([m5C])p.[moe](G)p.[moe](A)[sp].d(G)[sp].d([m5C])[sp].d(G)[sp].d(G)[sp].d(A)[sp].d(G)[sp].d(G)[sp].d([m5C])[sp].d([m5C])[sp].d(T)[sp].[moe](G)p.[moe](G)p.[moe](G)[sp].[moe](T)}$$$$ (last 3' nucleoside missing)
RNA1{[moe](G)[sp].[moe](T)p.[moe](T)p.[moe](T)p.[moe]([m5C])[sp].d(T)[sp].d(T)[sp].d(G)[sp].d(T)[sp].d(T)[sp].d(A)[sp].d(G)[sp].d(T)[sp].d(T)[sp].d(G)[sp].[moe](G)p.[moe](A)p.[moe](G)[sp].[moe](T)}$$$$ (last 3' nucleoside missing)

3 h FOB score, 2 score 0-7:
RNA1{[moe](T)[sp].[moe](G)p.[moe]([m5C])p.[moe]([m5C])p.[moe](A)p.[moe](T)p.d(T)[sp].d(T)[sp].d(A)[sp].d(T)[sp].d([m5C])[sp].d(T)[sp].d(G)[sp].d(T)[sp].d(G)[sp].d([m5C])[sp].[moe](T)p.[moe](T)[sp].[moe](T)}$$$$ (last 3' nucleoside missing)
RNA1{[moe]([m5C])[sp].[moe](T)p.[moe](G)p.[moe]([m5C])p.[moe]([m5C])p.d(A)[sp].d(T)[sp].d(T)[sp].d(T)[sp].d(A)[sp].d(T)[sp].d([m5C])[sp].d(T)[sp].d(G)[sp].d(T)[sp].[moe](G)p.[moe]([m5C])p.[moe](T)[sp].[moe](T)}$$$$ (last 3' nucleoside missing)
RNA1{[moe](T)[sp].[moe](G)p.[moe](T)p.[moe]([m5C])p.d(T)[sp].d(T)[sp].d(T)[sp].d(A)[sp].d(T)[sp].d(T)[sp].d(T)[sp].d(T)[sp].d(T)[sp].d([m5C])[sp].[moe]([m5C])p.[moe](T)p.[moe]([m5C])p.[moe](A)[sp].[moe](G)}$$$$ (last 3' nucleoside missing)

3 h FOB score, 6 score 0-7:
RNA1{[moe](A)[sp].[moe]([m5C])p.[moe]([m5C])p.[moe](T)p.[moe]([m5C])[sp].d([m5C])[sp].d(A)[sp].d(T)[sp].d([m5C])[sp].d(T)[sp].d([m5C])[sp].d(T)[sp].d(G)[sp].d(G)[sp].d([m5C])[sp].[moe](A)p.[moe](A)p.[moe]([m5C])[sp].[moe](A)}$$$$ (last 3' nucleoside missing)
